# The source made the active and inactive calls. How the calls were made is not given here.
# Tested on: CCRIS mutagenicity, Ames/micronucleus/aberration tests
# Assay: CCRIS mutagenicity studies
# [1] = Test System: AMES SALMONELLA TYPHIMURIUM, Strain/Indicator: TA98, Metabolic Activation: NONE, Method: STANDARD PLATE
# [2] = Test System: AMES SALMONELLA TYPHIMURIUM, Strain/Indicator: TA100, Metabolic Activation: NONE, Method: STANDARD PLATE
# [3] = Test System: AMES SALMONELLA TYPHIMURIUM, Strain/Indicator: TA1535, Metabolic Activation: NONE, Method: STANDARD PLATE
# [4] = Test System: AMES SALMONELLA TYPHIMURIUM, Strain/Indicator: TA1537, Metabolic Activation: NONE, Method: STANDARD PLATE
# [5] = Test System: AMES SALMONELLA TYPHIMURIUM, Strain/Indicator: TA1538, Metabolic Activation: NONE, Method: STANDARD PLATE
# [6] = Test System: AMES SALMONELLA TYPHIMURIUM, Strain/Indicator: TA98, Metabolic Activation: RAT, LIVER, S-9, AROCLOR 1254, Method: STANDARD PLATE
# [7] = Test System: AMES SALMONELLA TYPHIMURIUM, Strain/Indicator: TA100, Metabolic Activation: RAT, LIVER, S-9, AROCLOR 1254, Method: STANDARD PLATE
# [8] = Test System: AMES SALMONELLA TYPHIMURIUM, Strain/Indicator: TA1535, Metabolic Activation: RAT, LIVER, S-9, AROCLOR 1254, Method: STANDARD PLATE
# [9] = Test System: AMES SALMONELLA TYPHIMURIUM, Strain/Indicator: TA1538, Metabolic Activation: RAT, LIVER, S-9, AROCLOR 1254, Method: STANDARD PLATE
smiles,measurement,setting,value
CC(C)Oc1ccc2c(=O)c(-c3ccccc3)coc2c1,mutagenic call,[1],inactive; negative
same,mutagenic call,"Test System: AMES SALMONELLA TYPHIMURIUM, Strain/Indicator: TA98, Metabolic Activation: S-9, Method: STANDARD PLATE",inactive; negative
same,mutagenic call,[2],inactive; negative
same,mutagenic call,"Test System: AMES SALMONELLA TYPHIMURIUM, Strain/Indicator: TA100, Metabolic Activation: S-9, Method: STANDARD PLATE",inactive; negative
same,mutagenic call,[3],inactive; negative
same,mutagenic call,"Test System: AMES SALMONELLA TYPHIMURIUM, Strain/Indicator: TA1535, Metabolic Activation: S-9, Method: STANDARD PLATE",inactive; negative
same,mutagenic call,[4],inactive; negative
same,mutagenic call,"Test System: AMES SALMONELLA TYPHIMURIUM, Strain/Indicator: TA1537, Metabolic Activation: S-9, Method: STANDARD PLATE",inactive; negative
same,mutagenic call,[5],inactive; negative
same,mutagenic call,"Test System: AMES SALMONELLA TYPHIMURIUM, Strain/Indicator: TA1538, Metabolic Activation: S-9, Method: STANDARD PLATE",inactive; negative
same,mutagenic call,"Test System: E. COLI, Strain/Indicator: WP2 UVRA, Metabolic Activation: NONE, Method: STANDARD PLATE",inactive; negative
same,mutagenic call,"Test System: E. COLI, Strain/Indicator: WP2 UVRA, Metabolic Activation: S-9, Method: STANDARD PLATE",inactive; negative
N#CCCN,mutagenic call,"Test System: AMES SALMONELLA TYPHIMURIUM, Strain/Indicator: TA98, Metabolic Activation: HAMSTER, LIVER, S-9, AROCLOR 1254, Method: STANDARD PLATE",inactive; negative
same,mutagenic call,[1],inactive; negative
same,mutagenic call,[6],inactive; negative
same,mutagenic call,"Test System: AMES SALMONELLA TYPHIMURIUM, Strain/Indicator: TA100, Metabolic Activation: HAMSTER, LIVER, S-9, AROCLOR 1254, Method: STANDARD PLATE",inactive; negative
same,mutagenic call,[2],inactive; negative
same,mutagenic call,[7],inactive; negative
same,mutagenic call,"Test System: AMES SALMONELLA TYPHIMURIUM, Strain/Indicator: TA1535, Metabolic Activation: HAMSTER, LIVER, S-9, AROCLOR 1254, Method: STANDARD PLATE",inactive; negative
same,mutagenic call,[3],inactive; negative
same,mutagenic call,[8],inactive; negative
same,mutagenic call,"Test System: AMES SALMONELLA TYPHIMURIUM, Strain/Indicator: TA1537, Metabolic Activation: HAMSTER, LIVER, S-9, AROCLOR 1254, Method: STANDARD PLATE",inactive; negative
same,mutagenic call,[4],inactive; negative
same,mutagenic call,"Test System: AMES SALMONELLA TYPHIMURIUM, Strain/Indicator: TA1537, Metabolic Activation: RAT, LIVER, S-9, AROCLOR 1254, Method: STANDARD PLATE",inactive; negative
same,mutagenic call,"Test System: AMES SALMONELLA TYPHIMURIUM, Strain/Indicator: TA1538, Metabolic Activation: HAMSTER, LIVER, S-9, AROCLOR 1254, Method: STANDARD PLATE",inactive; negative
same,mutagenic call,[5],inactive; negative
same,mutagenic call,[9],inactive; negative
same,mutagenic call,"Test System: Mouse lymphoma, Strain/Indicator: L5178Y (tk+/tk-), Metabolic Activation: None, Method: Suspension/plate",inactive; inconclusive (previous evaluation negative)
same,mutagenic call,"Test System: Mouse lymphoma, Strain/Indicator: L5178Y (tk+/tk-), Metabolic Activation: Rat, Liver, S-9, Aroclor 1254, Method: Suspension/plate",inactive; negative
COc1c2ccoc2cc2oc(=O)ccc12,mutagenic call,[1],inactive; negative
same,mutagenic call,"Test System: AMES SALMONELLA TYPHIMURIUM, Strain/Indicator: TA98, Metabolic Activation: RAT, LIVER, S-9, PHENOBARBITAL, Method: STANDARD PLATE",inactive; negative
O=C/C=C/C=C/C=O,mutagenic call,"Test System: AMES SALMONELLA TYPHIMURIUM, Strain/Indicator: TA97, Metabolic Activation: NONE, Method: PREINCUBATION",inactive; negative
same,mutagenic call,"Test System: AMES SALMONELLA TYPHIMURIUM, Strain/Indicator: TA97, Metabolic Activation: NONE, Method: STANDARD PLATE",active; positive
same,mutagenic call,"Test System: AMES SALMONELLA TYPHIMURIUM, Strain/Indicator: TA97, Metabolic Activation: RAT, LIVER, S-9, AROCLOR 1254, Method: PREINCUBATION",inactive; negative
same,mutagenic call,"Test System: AMES SALMONELLA TYPHIMURIUM, Strain/Indicator: TA97, Metabolic Activation: RAT, LIVER, S-9, AROCLOR 1254, Method: STANDARD PLATE",active; positive
same,mutagenic call,"Test System: AMES SALMONELLA TYPHIMURIUM, Strain/Indicator: TA98, Metabolic Activation: NONE, Method: PREINCUBATION",inactive; negative
same,mutagenic call,"Test System: AMES SALMONELLA TYPHIMURIUM, Strain/Indicator: TA98, Metabolic Activation: RAT, LIVER, S-9, AROCLOR 1254, Method: PREINCUBATION",inactive; negative
same,mutagenic call,[6],inactive; negative
same,mutagenic call,"Test System: AMES SALMONELLA TYPHIMURIUM, Strain/Indicator: TA100, Metabolic Activation: NONE, Method: PREINCUBATION",inactive; negative
same,mutagenic call,[2],inactive; negative
same,mutagenic call,"Test System: AMES SALMONELLA TYPHIMURIUM, Strain/Indicator: TA100, Metabolic Activation: RAT, LIVER, S-9, AROCLOR 1254, Method: PREINCUBATION",inactive; negative
same,mutagenic call,[7],inactive; negative
same,mutagenic call,"Test System: AMES SALMONELLA TYPHIMURIUM, Strain/Indicator: TA102, Metabolic Activation: NONE, Method: PREINCUBATION",inactive; negative
same,mutagenic call,"Test System: AMES SALMONELLA TYPHIMURIUM, Strain/Indicator: TA102, Metabolic Activation: RAT, LIVER, S-9, AROCLOR 1254, Method: PREINCUBATION",inactive; negative
same,mutagenic call,"Test System: AMES SALMONELLA TYPHIMURIUM, Strain/Indicator: TA104, Metabolic Activation: NONE, Method: PREINCUBATION",inactive; negative
same,mutagenic call,"Test System: AMES SALMONELLA TYPHIMURIUM, Strain/Indicator: TA104, Metabolic Activation: RAT, LIVER, S-9, AROCLOR 1254, Method: PREINCUBATION",inactive; negative
same,mutagenic call,"Test System: AMES SALMONELLA TYPHIMURIUM, Strain/Indicator: TA1535, Metabolic Activation: NONE, Method: PREINCUBATION",inactive; negative
same,mutagenic call,"Test System: AMES SALMONELLA TYPHIMURIUM, Strain/Indicator: TA1535, Metabolic Activation: RAT, LIVER, S-9, AROCLOR 1254, Method: PREINCUBATION",inactive; negative
same,mutagenic call,[8],inactive; negative
same,mutagenic call,[9],inactive; negative
same,mutagenic call,"Test System: CHINESE HAMSTER OVARY, Strain/Indicator: CHO-K1-BH4 (HGPRT), Metabolic Activation: NONE, Method: STANDARD PLATE",inactive; negative
same,mutagenic call,"Test System: CHINESE HAMSTER V-79, Strain/Indicator: V-79 (HGPRT)/8-AZAGUANINE, Metabolic Activation: NONE",active; positive
same,mutagenic call,"Test System: CHINESE HAMSTER V-79, Strain/Indicator: V-79/6-THIOGUANINE, Metabolic Activation: NONE",active; positive
same,mutagenic call,"Test System: E. COLI, Strain/Indicator: WP2 UVRA, Metabolic Activation: NONE, Method: PREINCUBATION",inactive; negative
same,mutagenic call,"Test System: E. COLI, Strain/Indicator: WP2 UVRA, Metabolic Activation: RAT, LIVER, S-9, AROCLOR 1254, Method: PREINCUBATION",inactive; negative
same,mutagenic call,"Test System: UDS RODENT HEPATOCYTES, Strain/Indicator: THY INCORP (NON-S-PHASE), Metabolic Activation: NONE, Method: AUTORADIOGRAPHY",inactive; negative
ClCc1cccc(CCl)c1,mutagenic call,[1],inactive; negative

# Source: PubChem BioAssay AID1259407 (Chemical Carcinogenesis Research Information System (CCRIS), 2018)
